How the values were obtained:
[1] = system: cultured cells of giant cell tumor of tendon sheath (GCTT); assay: Suppression of cell proliferation of GCTT cultured cells (CCK-8); format: cell-based, human; conditions: drug at various concentrations, CCK-8 24 hours after addition
human PVNS cells = assay: Proliferation of human PVNS cells cultured beforehand with PPARγ siRNA or control siRNA; format: cell-based; conditions: PPARγ siRNA 100 nM 48 hours, 100 μM rosiglitazone or 400 μM zaltoprofen
SW1353 cells [2] = assay: Proliferation of SW1353 cells cultured beforehand with PPARγ siRNA or control siRNA; format: cell-based, human
SW1353 cells [3] = assay: Suppression of cell proliferation of chondrosarcoma cell line SW1353 (CCK-8); format: cell-based, human; conditions: drug at various concentrations
Excerpt: The H-EMC-SS cells were obtained from the Riken BioResource Center. As the SW1353 cells, those obtained from ATCC were used.

[4] = system: cells of giant cell tumor of tendon sheath (GCTT); assay: Fat cell differentiation of GCTT cells (HCS LipidTOX Green); format: cell-based, human; conditions: zaltoprofen 400 μM, compared with control
Protocol: (§1) It has been reported that PPARγ is a transcription factor indispensable for fat cell differentiation. Therefore, the GCTB cultured cells of the aforementioned case 1 were cultured on chamber cover slide glass, and when they reached confluent, zaltoprofen was added to the cells at various concentrations (10, 50, and 100 μM). From 24 hours thereafter, the cells were cultured in a fat cell differentiation-inducing medium (STREMPRO Adipogenesis Differentiation Kit, Invitrogen) for 7 to 14 days, and differentiation into fat cells was analyzed with HCS Lipid TOX Green Neutral Lipid Stain (Invitrogen) (FIGS. 8 and 9).
It has been reported that PPARγ is a transcription factor indispensable for fat cell differentiation. Therefore, in the same manner as that of Example 3, zaltoprofen was added at a concentration of 400 μM to the cells of giant cell tumor of tendon sheath (GCTT) or cells of pigmented villonodular synovitis (PVNS), and differentiation into fat cells was analyzed (FIGS. 30 and 31). As a result, it was successfully confirmed that the positive images obtained with HCS LipidTOX Green increased in the zaltoprofen-added cells compared with the control.

[5] = system: PPARγ expression in H-EMC-SS cells; assay: PPARγ immunostaining of chondrosarcoma cell line H-EMC-SS; format: cell-based, human; conditions: zaltoprofen 200 μM, troglitazone 100 μM or pioglitazone 200 μM
[6] = system: GCTB cultured cells of the case 1; assay: Tunel assay and caspase 3 staining of GCTB cultured cells (apoptosis); format: cell-based, human; conditions: zaltoprofen 100 and 200 μM; 8 hours and 24 hours
Protocol: Further, the aforementioned GCTB cultured cells of the case 1 mentioned above were cultured on chamber cover slide glass, and zaltoprofen was added at different concentrations (100, and 200 μM) 24 hours afterward. Then, 8 hours and 24 hours afterward, the cells were fixed with 4% paraformaldehyde, staining with caspase 3 and Tunel assay were performed, and presence or absence of apoptosis was analyzed. In the Tunel assay, fragmented DNAs produced in the process of apoptosis were detected by the TdT-mediated dUTP nick end labeling method (TUNEL). Observation was performed with a fluorescence microscope (BZ-9000) of Keyence, and positive images for each concentration were quantitatively observed (FIGS. 2 to 5).

[7] = system: GCTB cultured cells of the case 1; assay: Fat cell differentiation of GCTB cultured cells (HCS Lipid TOX Green Neutral Lipid Stain); format: cell-based, human; conditions: zaltoprofen 10, 50, 100 μM; fat cell differentiation-inducing medium 7 to 14 days
Protocol: as §1

CC(C(=O)O)c1ccc2c(c1)CC(=O)c1ccccc1S2 (stereo not shown) [zaltoprofen]
suppression of cell proliferation (absorbance at 450 nm) [1]: cell proliferation was suppressed
cell proliferation-suppressing action with PPARγ siRNA (human PVNS cells): substantially completely eliminated
suppression of proliferation of SW1353 cells (SW1353 cells [2]; 400 μM zaltoprofen, 24 hours): about 38%
cell proliferation-suppressing action when expression of PPARγ is suppressed by siRNA (SW1353 cells [2]; SW1353, PPARγ-siRNA 100 nM 48 hours, 400 μM zaltoprofen or 100 μM rosiglitazone): substantially eliminated
suppression of cell proliferation (absorbance at 450 nm) (SW1353 cells [3]): suppressed proliferation
positive images obtained with HCS LipidTOX Green (differentiation into fat cells) [4]: increased
expression of PPARγ (PPARγ-positive images) [5]: expression of PPARγ could be confirmed
Tunel-positive ratio [6]: concentration and administration time-dependent increases
caspase 3-positive ratio [6]: concentration and administration time-dependent increases
positive images obtained with HCS Lipid TOX Green Neutral Lipid Stain (differentiation into fat cells) [7]: increased in a zaltoprofen concentration-dependent manner

From patent US10653667B2, “Drug for preventing, treating or preventing metastasis of giant cell tumor that occurs in bone or soft parts, chondrosarcoma, or osteosarcoma, local injection for arterial embolization, and artificial bone” (NIPPON CHEMIPHAR CO., LTD, priority 2013, dated 2020)
